According to patent US7098241B2, “Thiophene hydroxamic acid derivatives” (Hoffmann-La Roche Inc., priority 2002, dated 2006):
pIC50: −log10 of the molar value. Like-named read-outs stand apart in the source and are kept apart here.

Legend:
[1] = system: HT-29 cells (human colon carcinoma cell line); test: MTT anti-proliferation assay on HT-29 cells; assay type: cell-based; conditions: 384 well plates, 5 days, read-out: IC50 HT29 384
Source text: MTT (3-(4,5-dimethylthiazol-2-yl)-2,5-diphenyl tetrazolium bromide) is widely used for the quantitative determination of cytotoxic effects or in vitro chemosensitivity of tumor cells. The assay is based on the cleavage of the yellow tetrazolium salt (MTT) to purple formazan crystals by metabolic active cells. For details, see Rubinstein, L. V., et al., J. Natl. Cancer Inst. 82 (1990) 1113.
We proceeded as follows: HT-29 cells (human colon carcinoma cell line) were cultivated in RPMI 1640, 2.5% FCS, 2 mM glutamine, 100 u/ml penicillin, 100 ug/ml streptomycin. For the assay the cells were seeded in 384 well plates, 900 cells per well, in the same medium. At the next day, the compounds (dissolved 10 mM in DMSO) were added in various concentrations ranging from 30 uM to 1.5 nM. After 5 days, the MTT assay was done mainly according to the instructions of the manufacturer (Cell proliferation kit I, MTT, from Roche Molecular Biochemicals). In brief: MTT labeling reagent was added to a final concentration of 0.5 mg/ml, added and incubated for 4 hrs at 37° C., 5% CO2. During this incubation time purple formazan crystals are formed. After addition of the solubilization solution (20% SDS in 0.02 M HCl) the plates were incubated overnight at 37° C., 5% CO2. After careful mixing, the plates were measured in Victor 2 (scanning multiwell spectrophotometer, Wallac) at 550 nm.
A decrease in number of living cells results in a decrease in the total metabolic activity in the sample. The decrease directly correlates to the amount of purple color resulting from the solubilization of the purple formazan crystals. Determination of IC50 was done using XL-fit.

recombinant HDAC-1 = biological target: T1, recombinant HDAC-1 (Homo sapiens, UniProt Q13547); test: HDAC biochemical quench assay; conditions: recombinant HDAC-1 purified from HEK 293 cells, 1 uM peptide substrate, 90 min at room temperature
T1 construct: made in house; host or cells: HEK 293 cells
T1 sequence (Q13547 whole entry, species assumed): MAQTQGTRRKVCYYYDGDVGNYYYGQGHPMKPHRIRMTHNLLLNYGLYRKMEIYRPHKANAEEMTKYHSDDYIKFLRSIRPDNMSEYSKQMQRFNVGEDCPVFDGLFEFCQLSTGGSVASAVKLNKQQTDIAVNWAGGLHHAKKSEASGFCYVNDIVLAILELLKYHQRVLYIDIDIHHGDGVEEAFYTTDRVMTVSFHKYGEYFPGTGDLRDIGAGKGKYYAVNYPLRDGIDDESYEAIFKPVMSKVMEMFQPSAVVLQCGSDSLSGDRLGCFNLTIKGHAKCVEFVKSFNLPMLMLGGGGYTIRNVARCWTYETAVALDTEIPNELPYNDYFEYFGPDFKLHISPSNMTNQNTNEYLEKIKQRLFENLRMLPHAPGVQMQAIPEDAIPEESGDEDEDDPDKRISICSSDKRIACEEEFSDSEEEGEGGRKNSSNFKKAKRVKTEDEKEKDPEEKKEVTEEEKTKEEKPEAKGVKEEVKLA
Source text: The function of histone deacetylase (HDAC) is the deacetylation of lysines in e.g. histone H4. A peptide of 17 amino acids derived from histone H4 was labeled with TAMRA at the C-terminus and QSY-7 at the N-terminus and was used as a substrate (TAMRA-first17 aa of histone H4-QSY7). Following deacetylation by HDAC, the enzyme Lys C is able to cleave the peptide after lysine. […] Inhibition of HDAC by compounds results in low signals because Lys C could not cleave the substrate and the quench effect persists.
For dose response curves, 10 concentrations were diluted 1:3 starting at 30 uM. 10 ul compound dilution were put into each well of a 384 well plate. 10 ul HDAC were added (recombinant HDAC-1 purified from HEK 293 cells; enzyme activity has to be assessed for each preparation). 10 ul peptide substrate was added (1 uM final concentration, derived from 1 mM stock solution diluted 1:1000 in test buffer). After 90 min incubation at room temperature, the reaction was stopped by addition of 20 ul test buffer including 3 ug/ml Lys C and 0.075% SDS. After overnight incubation the fluorescence signal of TAMRA was measured (Victor 2 from Wallac, absorption 544 nm, emission 590 nm). The O.D. of DMSO-treated control wells is 100%, the % inhibition of compound treated wells is calculated in relation to 100%. Based on 10 concentrations a IC50 curve is generated by using XL.fit3.
Test buffer used: a mixture of 10 mM Hepes pH8, 10 mM NaCl, 10% Glycerol, 0.005% Triton X100, 0.1 mM EDTA, 0.1 mM TCEP. As plates were used 384 well plates (black, Greiner, 781077).

| SMILES | pIC50 ([1]; Homo sapiens, 120 h) | pIC50 (recombinant HDAC-1) | pIC50 [1] |
| --- | --- | --- | --- |
| Cc1ccc([C@@H](C)NC(=O)c2ccc(C(=O)NO)s2)cc1 [Example 2a, (R)-thiophene-2,5-dicarboxylic acid 2-hydroxyamide 5-[(1-p-tolyl-ethyl)-amide]] | 6.72 | 8.47 |  |
| C[C@@H](NC(=O)c1ccc(C(=O)NO)s1)c1ccc(F)cc1 [Example 2b, (R)-thiophene-2,5-dicarboxylic acid 2-{[1-(4-fluoro-phenyl)-ethyl]-amide}5-hydroxyamide] | 6.77 | 8.30 |  |
| C[C@@H](NC(=O)c1ccc(C(=O)NO)s1)c1ccc(Cl)cc1 [Example 2c, (R)-thiophene-2,5-dicarboxylic acid 2-{[1-(4-chloro-phenyl)-ethyl]-amide}5-hydroxyamide] | 7.30 | 8.46 |  |
| C[C@@H](NC(=O)c1ccc(C(=O)NO)s1)c1ccc(Br)cc1 [Example 2d, (R)-thiophene-2,5-dicarboxylic acid 2-{[1-(4-bromo-phenyl)-ethyl]-amide}5-hydroxyamide] | 7.10 | 8.41 |  |
| C[C@@H](NC(=O)c1ccc(C(=O)NO)s1)c1cccc2ccccc12 [Example 2e, (R)-thiophene-2,5-dicarboxylic acid 2-hydroxyamide 5-[(1-naphthalen-1-yl-ethyl)-amide]] | 7.40 | 8.76 |  |
| C[C@@H](NC(=O)c1ccc(C(=O)NO)s1)c1ccc2ccccc2c1 [Example 2f, (R)-thiophene-2,5-dicarboxylic acid 2-hydroxyamide 5-[(1-naphthalen-2-yl-ethyl)-amide]] | 8.00 | 8.30 |  |
| CC[C@@H](NC(=O)c1ccc(C(=O)NO)s1)c1ccccc1 [Example 2g, (R)-thiophene-2,5-dicarboxylic acid 2-hydroxyamide 5-[(1-phenyl-propyl)-amide]] | 7.22 | 8.93 |  |
| COc1cccc([C@@H](C)NC(=O)c2ccc(C(=O)NO)s2)c1 [Example 2h, (R)-thiophene-2,5-dicarboxylic acid 2-hydroxyamide 5-{[1-(3-methoxy-phenyl)-ethyl]-amide}] | 7.15 | 8.88 |  |
| COc1ccc([C@@H](C)NC(=O)c2ccc(C(=O)NO)s2)cc1 [Example 2i, (R)-thiophene-2,5-dicarboxylic acid 2-hydroxyamide 5-{[1-(4-methoxy-phenyl)-ethyl]-amide}] | 7.30 | 8.75 |  |
| COC[C@H](NC(=O)c1ccc(C(=O)NO)s1)c1ccccc1 [Example 2l, (R)-thiophene-2,5-dicarboxylic acid 2-hydroxyamide 5-[(2-methoxy-1-phenyl-ethyl)-amide]] | 6.24 | 8.50 |  |
| O=C(NO)c1ccc(C(=O)N[C@@H]2CCc3ccccc32)s1 [Example 2m, (R)-thiophene-2,5-dicarboxylic acid 2-hydroxyamide 5-indan-1-ylamide] | 6.52 | 8.86 |  |
| O=C(NO)c1ccc(C(=O)N[C@@H]2CCCc3ccccc32)s1 [Example 2n, (R)-thiophene-2,5-dicarboxylic acid 2-hydroxyamide 5-[(1,2,3,4-tetrahydro-naphthalen-1-yl)-amide]] | 6.46 | 8.54 |  |
| C[C@H](NC(=O)c1ccc(C(=O)NO)s1)c1ccccc1 [Example 4a, (S)-thiophene-2,5-dicarboxylic acid 2-hydroxyamide 5-[(1-phenyl-ethyl)-amide]] |  |  | 6.08 |
| C[C@H](NC(=O)c1ccc(C(=O)NO)s1)c1ccc(Cl)cc1 [Example 4c, (S)-thiophene-2,5-dicarboxylic acid 2-{[1-(4-chloro-phenyl)-ethyl]-amide}5-hydroxyamide] |  |  | 6.08 |
| C[C@H](NC(=O)c1ccc(C(=O)NO)s1)c1ccc(Br)cc1 [Example 4d, (S)-thiophene-2,5-dicarboxylic acid 2-{[1-(4-bromo-phenyl)-ethyl]-amide}5-hydroxyamide] |  |  | 6.06 |
| C[C@H](NC(=O)c1ccc(C(=O)NO)s1)c1ccc2ccccc2c1 [Example 4f, (S)-thiophene-2,5-dicarboxylic acid 2-hydroxyamide 5-[(1-naphthalen-2-yl-ethyl)-amide]] |  |  | 6.04 |
| CC[C@H](NC(=O)c1ccc(C(=O)NO)s1)c1ccccc1 [Example 4g, (S)-thiophene-2,5-dicarboxylic acid 2-hydroxyamide 5-[(1-phenyl-propyl)-amide]] | 6.11 | 8.50 |  |
| COc1cccc([C@H](C)NC(=O)c2ccc(C(=O)NO)s2)c1 [Example 4h, (S)-thiophene-2,5-dicarboxylic acid 2-hydroxyamide 5-{[1-(3-methoxy-phenyl)-ethyl]-amide}] |  | 8.75 |  |
| COc1ccc([C@H](C)NC(=O)c2ccc(C(=O)NO)s2)cc1 [Example 4i, (S)-thiophene-2,5-dicarboxylic acid 2-hydroxyamide 5-{[1-(4-methoxy-phenyl)-ethyl]-amide}] | 6.25 | 8.59 |  |
| COC[C@@H](NC(=O)c1ccc(C(=O)NO)s1)c1ccccc1 [Example 4l, (S)-thiophene-2,5-dicarboxylic acid 2-hydroxyamide 5-[(2-methoxy-1-phenyl-ethyl)-amide]] | 6.80 | 8.39 |  |
| O=C(NO)c1ccc(C(=O)N[C@H]2CCc3ccccc32)s1 [Example 4m, (S)-thiophene-2,5-dicarboxylic acid 2-hydroxyamide 5-indan-1-ylamide] |  | 8.53 |  |
| O=C(NO)c1ccc(C(=O)N[C@H]2CCCc3ccccc32)s1 [Example 4n, (S)-thiophene-2,5-dicarboxylic acid 2-hydroxyamide 5-[(1,2,3,4-tetrahydro-naphthalen-1-yl)-amide]] | 6.11 | 9.10 |  |
| C[C@@H](NC(=O)c1ccc(C(=O)NO)s1)c1cccs1 [Example 7, (R)-Thiophene-2,5-dicarboxylic Acid 2-hydroxyamide 5-[(1-thiophen-2-yl-ethyl)-amide]] | 7.22 | 8.78 |  |
| O=C(NO)c1ccc(C(=O)N[C@@H](CN2CCOCC2)c2ccccc2)s1 [Example 8c, (R)-thiophene-2,5-dicarboxylic acid 2-hydroxyamide 5-[(2-morpholin-4-yl-1-phenyl-ethyl)-amide]] | 6.20 | 8.37 |  |
| C[C@@H](NC(=O)c1ccc(C(=O)NO)s1)c1ccc(C(F)(F)F)cc1 [Example 8d, (R)-thiophene-2,5-dicarboxylic acid 2-hydroxyamide 5-{[1-(4-trifluoromethyl-phenyl)-ethyl]-amide}] | 7.52 | 8.90 |  |
| C[C@@H](NC(=O)c1ccc(C(=O)NO)s1)c1ccc(C(C)(C)C)cc1 [Example 8e, (R)-thiophene-2,5-dicarboxylic acid 2-{[1-(4-tert-butyl-phenyl)-ethyl]-amide}5-hydroxyamide] | 8.00 | 8.97 |  |
| O=C(NO)c1ccc(C(=O)N[C@H](Cc2ccccc2)c2ccccc2)s1 [Example 8f, (R)-thiophene-2,5-dicarboxylic acid 2-[(1,2-diphenyl-ethyl)-amide]5-hydroxyamide] | 7.40 | 8.88 |  |
| C[C@H](NC(=O)c1ccc(C(=O)NO)s1)c1cccs1 [Example 9, (S)-Thiophene-2,5-dicarboxylic Acid 2-hydroxyamide 5-[(1-thiophen-2-yl-ethyl)-amide]] | 6.28 | 8.42 |  |
| O=C(NO)c1ccc(C(=O)N[C@H](CN2CCOCC2)c2ccccc2)s1 [Example 10c, (S)-thiophene-2,5-dicarboxylic acid 2-hydroxyamide 5-[(2-morpholin-4-yl-1-phenyl-ethyl)-amide]] |  | 8.71 |  |
